Counter-ions that a name gives are not always drawn.
Target: T1, recombinant human GSK3β (Homo sapiens, UniProt P49841)
T1 construct: purchased Dundee University, UK
Experiment: GSK3β Scintillation Proximity Assay (ATP competition)
Format: biochemical
Settings: SPA, 1 μM ATP, Km of ATP 20 μM used to calculate Ki
Procedure: Determination of ATP Competition in Scintillation Proximity GSK3β Assay.
GSK3β Scintillation Proximity Assay.
The competition experiments were carried out in duplicate with 10 different concentrations of the inhibitors in clear-bottom microtiter plates (Wallac, Finland). A biotinylated peptide substrate, Biotin-Ala-Ala-Glu-Glu-Leu-Asp-Ser-Arg-Ala-Gly-Ser(PO3H2)-Pro-Gln-Leu (AstraZeneca, Lund), was added at a final concentration of 1 μM in an assay buffer containing 1 mU recombinant human GSK3β (Dundee University, UK), 12 mM morpholinepropanesulfonic acid (MOPS), pH 7.0, 0.3 mM EDTA, 0.01% β-mercaptorethanol, 0.004% Brij 35 (a […] detergent), 0.5% glycerol and 0.5 μg BSA/25 μl. The reaction was initiated by the addition of 0.04 μCi [γ-^33P]ATP (Amersham, UK) and unlabelled ATP at a final concentration of 1 μM and assay volume of 25 μL. After incubation for 20 minutes at room temperature, each reaction was terminated by the addition of 25 μl stop solution containing 5 mM EDTA, 50 μM ATP, 0.1% Triton X-100 and 0.25 mg streptavidin coated Scintillation Proximity Assay (SPA) beads (Amersham, UK). After 6 hours the radioactivity was determined in a liquid scintillation counter (1450 MicroBeta Trilux, Wallac). The inhibition curves were analysed by non-linear regression using GraphPad Prism, USA. The Km value of ATP for GSK3β, used to calculate the inhibition constants (Ki) of the various compounds, was 20 μM.

T1 sequence (P49841 whole entry): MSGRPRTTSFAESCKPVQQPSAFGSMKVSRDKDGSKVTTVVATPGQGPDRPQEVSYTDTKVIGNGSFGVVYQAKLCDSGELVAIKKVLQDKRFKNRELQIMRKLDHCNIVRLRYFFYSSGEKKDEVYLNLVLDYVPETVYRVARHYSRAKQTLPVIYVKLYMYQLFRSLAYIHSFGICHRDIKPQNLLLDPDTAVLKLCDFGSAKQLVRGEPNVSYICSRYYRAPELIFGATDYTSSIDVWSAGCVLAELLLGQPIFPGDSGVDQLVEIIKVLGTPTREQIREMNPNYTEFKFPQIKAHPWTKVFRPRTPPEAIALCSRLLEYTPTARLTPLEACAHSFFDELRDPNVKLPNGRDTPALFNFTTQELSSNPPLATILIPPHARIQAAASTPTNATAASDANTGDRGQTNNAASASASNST

Point of comparison: `Cc1cc(S(=O)(=O)N2CCN(C)CC2)ccc1Nc1ncc(F)c(-c2cnc(C)n2C(C)C)n1` [Example 5, 5-Fluoro-4-(1-isopropyl-2-methyl-1H-imidazol-5-yl)-N-{2-methyl-4-[(4-methylpiperazin-1-yl)sulfonyl]phenyl}pyrimidin-2-amine hydrochloride], Ki 24 nM. Against it:
- Cc1ncc(-c2nc(Nc3ccc(C(=O)c4ccccn4)cc3)ncc2F)n1C(C)C [Example 2, (4-{[5-Fluoro-4-(1-isopropyl-2-methyl-1H-imidazol-5-yl)pyrimidin-2-yl]amino}phenyl)(pyridin-2-yl)methanone hydrochloride] — 18-fold lower, 1.3 nM
- COc1cc(Nc2ncc(F)c(-c3cnc(C)n3C(C)C)n2)ccc1C(=O)N1CCN(C)CC1 [Example 11, 5-Fluoro-4-(1-isopropyl-2-methyl-1H-imidazol-5-yl)-N-{3-methoxy-4-[(4-methylpiperazin-1-yl)carbonyl]phenyl}pyrimidin-2-amine hydrochloride] — within 1.5-fold, 25 nM
- Cc1ncc(-c2nc(Nc3ccc(C(=O)N4CCN(C)CC4)cc3)ncc2F)n1C(C)C [Example 13, 5-Fluoro-4-(1-isopropyl-2-methyl-1H-imidazol-5-yl)-N-{4-[(4-methylpiperazin-1-yl)carbonyl]phenyl}pyrimidin-2-amine hydrochloride] — 6.3-fold lower, 3.8 nM
